In ChEMBL document CHEMBL1133894, “Design and synthesis of a highly selective EP4-receptor agonist. Part 2: 5-thia and 9beta-haloPG derivatives with improved stability” (Bioorg Med Chem Lett, 2001):

Experiments:
[1] = target: T1, Prostaglandin E2 receptor EP3 subtype (Mus musculus, UniProt P30557); experiment: Affinity for mouse Prostanoid EP3 receptor expressed in CHO cells; type: cell-based
T1 sequence (P30557 whole entry): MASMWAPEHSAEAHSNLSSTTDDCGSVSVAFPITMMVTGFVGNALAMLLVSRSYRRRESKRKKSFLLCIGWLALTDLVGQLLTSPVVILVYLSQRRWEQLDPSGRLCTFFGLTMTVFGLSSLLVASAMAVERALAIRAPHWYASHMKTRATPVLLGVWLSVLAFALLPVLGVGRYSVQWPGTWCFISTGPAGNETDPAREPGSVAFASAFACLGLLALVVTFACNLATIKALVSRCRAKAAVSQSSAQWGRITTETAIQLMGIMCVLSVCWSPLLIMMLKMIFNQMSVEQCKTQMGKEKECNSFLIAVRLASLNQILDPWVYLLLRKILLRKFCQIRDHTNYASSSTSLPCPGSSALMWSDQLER

[2] = target: Prostacyclin receptor (Homo sapiens, UniProt P43119); experiment: Affinity for human Prostanoid IP receptor expressed in CHO cells; type: cell-based
Sequence of Prostacyclin receptor (P43119 whole entry): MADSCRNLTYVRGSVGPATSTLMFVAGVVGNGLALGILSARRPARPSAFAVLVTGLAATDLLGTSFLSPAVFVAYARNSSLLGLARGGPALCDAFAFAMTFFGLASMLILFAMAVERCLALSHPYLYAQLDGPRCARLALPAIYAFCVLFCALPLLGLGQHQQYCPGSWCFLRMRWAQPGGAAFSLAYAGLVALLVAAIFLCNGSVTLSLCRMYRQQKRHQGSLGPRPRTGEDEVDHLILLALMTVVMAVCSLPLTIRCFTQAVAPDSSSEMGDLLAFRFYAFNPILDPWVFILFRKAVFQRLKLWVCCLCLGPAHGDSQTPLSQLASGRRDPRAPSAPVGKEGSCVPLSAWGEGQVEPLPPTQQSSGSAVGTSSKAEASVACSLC

[3] = target: T2, Prostaglandin E2 receptor EP1 subtype (Mus musculus, UniProt P35375); experiment: Affinity for mouse Prostanoid EP1 receptor expressed in CHO cells; type: cell-based
T2 sequence (P35375 whole entry): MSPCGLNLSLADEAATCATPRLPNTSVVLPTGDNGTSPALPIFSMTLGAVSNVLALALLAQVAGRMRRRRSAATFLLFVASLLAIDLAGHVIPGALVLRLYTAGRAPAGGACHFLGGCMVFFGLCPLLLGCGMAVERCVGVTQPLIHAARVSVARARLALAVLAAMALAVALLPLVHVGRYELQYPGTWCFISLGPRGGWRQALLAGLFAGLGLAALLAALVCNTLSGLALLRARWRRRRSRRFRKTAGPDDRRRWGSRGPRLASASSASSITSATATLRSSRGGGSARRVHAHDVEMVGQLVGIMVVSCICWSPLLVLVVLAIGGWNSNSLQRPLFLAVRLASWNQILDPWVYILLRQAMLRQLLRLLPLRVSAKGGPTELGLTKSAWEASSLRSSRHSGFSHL

[4] = target: T3, Prostaglandin E2 receptor EP4 subtype (Mus musculus, UniProt P32240); experiment: Affinity for mouse Prostanoid EP4 receptor expressed in CHO cells; type: cell-based
T3 sequence (P32240 whole entry): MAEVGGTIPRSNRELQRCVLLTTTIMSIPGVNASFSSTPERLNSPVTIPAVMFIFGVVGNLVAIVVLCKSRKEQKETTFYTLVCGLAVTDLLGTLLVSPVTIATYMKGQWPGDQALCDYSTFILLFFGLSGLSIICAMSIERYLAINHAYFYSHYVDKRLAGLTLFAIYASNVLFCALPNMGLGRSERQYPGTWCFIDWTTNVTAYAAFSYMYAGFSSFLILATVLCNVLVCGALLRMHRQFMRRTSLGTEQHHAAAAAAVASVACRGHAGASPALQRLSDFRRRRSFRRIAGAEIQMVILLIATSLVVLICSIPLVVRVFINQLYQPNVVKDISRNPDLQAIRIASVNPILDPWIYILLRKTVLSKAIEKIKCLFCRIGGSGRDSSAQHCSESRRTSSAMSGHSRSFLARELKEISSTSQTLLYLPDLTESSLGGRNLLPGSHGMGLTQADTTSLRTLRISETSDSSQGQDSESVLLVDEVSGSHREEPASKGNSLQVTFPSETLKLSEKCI

[5] = target: Prostaglandin E2 receptor EP2 subtype (Mus musculus, UniProt Q62053); experiment: Affinity for mouse Prostanoid EP2 receptor expressed in CHO cells; type: cell-based
Sequence of Prostaglandin E2 receptor EP2 subtype (Q62053 whole entry): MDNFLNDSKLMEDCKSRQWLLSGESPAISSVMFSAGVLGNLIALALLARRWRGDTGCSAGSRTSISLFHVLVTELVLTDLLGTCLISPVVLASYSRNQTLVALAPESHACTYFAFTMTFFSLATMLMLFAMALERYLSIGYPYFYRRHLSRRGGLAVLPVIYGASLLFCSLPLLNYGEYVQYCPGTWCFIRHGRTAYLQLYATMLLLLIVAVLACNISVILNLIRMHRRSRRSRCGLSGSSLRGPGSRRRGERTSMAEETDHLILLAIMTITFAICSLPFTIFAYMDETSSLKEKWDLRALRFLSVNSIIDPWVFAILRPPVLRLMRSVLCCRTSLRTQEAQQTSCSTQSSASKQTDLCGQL

[6] = target: T3, Prostaglandin E2 receptor EP4 subtype; experiment: Effective concentration for increased intracellular c-AMP production by mouse Prostanoid EP4 receptor; type: functional, cell-based
[7] = system: Rattus norvegicus; experiment: Suppression of production of plasma TNF-alpha after intravenous infusion of 10, 30, 100 and 300 ng/kg/min; significant; type: functional, organism-based
[8] = organism: Rattus norvegicus; experiment: Stimulation of Uterine motility which mediates the EP3-receptor in rats; type: functional

Ki [1] [nM] | Ki [2] [µM] | Ki [3] [nM] | Ki [4] [nM] | Ki [5] [nM] | EC50 [6] [nM] | SMILES | Supression [7] | ED50 [8] [mg/kg]
740 | > 10 | 5400 | 2.7 | 370 | 160 | COCc1cccc(C[C@H](O)/C=C/[C@@H]2[C@@H](CCCCCCC(=O)O)[C@H](Cl)C[C@H]2O)c1 | – | –
2200 | > 10 | 3100 | 7.7 | 290 | 44 | Cc1cc(C[C@H](O)/C=C/[C@@H]2[C@@H](C/C=C/CCCC(=O)O)[C@H](Cl)C[C@H]2O)ccc1O | – | –
– | > 10 | – | 32 | 3100 | 270 | COCc1cccc(C[C@H](O)/C=C/[C@@H]2[C@@H](CCSCCCC(=O)O)[C@H](F)C[C@H]2O)c1 | – | –
– | > 10 | 6 | 3.1 | 22 | 3.6 | CCCCC[C@H](O)/C=C/[C@H]1[C@H](O)CC(=O)[C@@H]1CCCCCCC(=O)O [ALPROSTADIL] | – | –
– | > 10 | – | 4.9 | 7400 | 20 | Cc1cc(C[C@H](O)/C=C/[C@H]2[C@H](O)CC(=O)[C@@H]2CCSCCCC(=O)O)ccc1O | – | –
94 | > 10 | 1700 | 3.4 | 58 | 14 | COCc1cccc(C[C@H](O)/C=C/[C@@H]2[C@@H](C/C=C/CCCC(=O)O)[C@H](F)C[C@H]2O)c1 | – | –
3.7 | 0.92 | 27 | 11 | 340 | 1000 | CCCCC[C@H](O)/C=C/[C@H]1[C@H](O)CC(=O)[C@@H]1CCCSCCC(=O)O | – | –
2 | 1.4 | 95 | 8.7 | 91 | 1000 | CCCCC[C@H](O)/C=C/[C@H]1[C@H](O)CC(=O)[C@@H]1CSCCCCC(=O)O | – | –
– | – | – | – | – | – | COCc1cccc(C[C@H](O)/C=C/[C@H]2[C@H](O)CC(=O)[C@@H]2CCSCCCC(=O)OC)c1 [RIVENPROST] | significant | > 300
56 | > 10 | > 10000 | 0.7 | 620 | 1.6 | COCc1cccc(C[C@H](O)/C=C/[C@H]2[C@H](O)CC(=O)[C@@H]2CCSCCCC(=O)O)c1 | – | –
1.2 | > 10 | 200 | 2.1 | 49 | 46 | CCCCC[C@H](O)/C=C/[C@H]1[C@H](O)CC(=O)[C@@H]1CCCCSCC(=O)O | – | –
92 | > 10 | 980 | 0.5 | 12 | 3.3 | COCc1cccc(C[C@H](O)/C=C/[C@@H]2[C@@H](C/C=C/CCCC(=O)O)[C@H](Cl)C[C@H]2O)c1 | – | –
1.9 | 0.75 | 52 | 0.5 | 75 | 3.6 | CCCCC[C@H](O)/C=C/[C@H]1[C@H](O)CC(=O)[C@@H]1CCSCCCC(=O)O | – | –
